Results as given in the NIST ThermoML archive (doi:10.1021/je034087q).

Assay: xn = mol fraction of the nth substance listed

CC(C)=O [acetone] + O=C=O
Details | mass density [kg/m3]
323.15 K, 11950 kPa, Fluid (supercritical or subcritical phases), x2 = 0.811 | 807
323.15 K, 12030 kPa, Fluid (supercritical or subcritical phases), x2 = 0.902 | 754
323.15 K, 12090 kPa, Fluid (supercritical or subcritical phases), x2 = 0.948 | 711
323.15 K, 12200 kPa, Fluid (supercritical or subcritical phases), x2 = 0.933 | 731
323.15 K, 12260 kPa, Fluid (supercritical or subcritical phases), x2 = 0.882 | 779
323.15 K, 12300 kPa, Fluid (supercritical or subcritical phases), x2 = 0.902 | 757
323.15 K, 12370 kPa, Fluid (supercritical or subcritical phases), x2 = 0.772 | 818
323.15 K, 12400 kPa, Fluid (supercritical or subcritical phases), x2 = 0.952 | 710
323.15 K, 12560 kPa, Fluid (supercritical or subcritical phases), x2 = 0.811 | 813
323.15 K, 12620 kPa, Fluid (supercritical or subcritical phases), x2 = 0.902 | 762
323.15 K, 12620 kPa, Fluid (supercritical or subcritical phases), x2 = 0.933 | 740
323.15 K, 12680 kPa, Fluid (supercritical or subcritical phases), x2 = 0.186 | 788
323.15 K, 12750 kPa, Fluid (supercritical or subcritical phases), x2 = 0.948 | 727
323.15 K, 12960 kPa, Fluid (supercritical or subcritical phases), x2 = 0.902 | 769
323.15 K, 12970 kPa, Fluid (supercritical or subcritical phases), x2 = 0.882 | 785
323.15 K, 13090 kPa, Fluid (supercritical or subcritical phases), x2 = 0.811 | 818
323.15 K, 13130 kPa, Fluid (supercritical or subcritical phases), x2 = 0.772 | 823
323.15 K, 13130 kPa, Fluid (supercritical or subcritical phases), x2 = 0.933 | 748
323.15 K, 13170 kPa, Fluid (supercritical or subcritical phases), x2 = 0.952 | 726
323.15 K, 13190 kPa, Fluid (supercritical or subcritical phases), x2 = 0.576 | 829
323.15 K, 13240 kPa, Fluid (supercritical or subcritical phases), x2 = 0.902 | 771
323.15 K, 13450 kPa, Fluid (supercritical or subcritical phases), x2 = 0.902 | 775
323.15 K, 13560 kPa, Fluid (supercritical or subcritical phases), x2 = 0.383 | 813
323.15 K, 13560 kPa, Fluid (supercritical or subcritical phases), x2 = 0.882 | 791
323.15 K, 13610 kPa, Fluid (supercritical or subcritical phases), x2 = 0.811 | 821
323.15 K, 13640 kPa, Fluid (supercritical or subcritical phases), x2 = 0.948 | 744
323.15 K, 13700 kPa, Fluid (supercritical or subcritical phases), x2 = 0.933 | 758
323.15 K, 13770 kPa, Fluid (supercritical or subcritical phases), x2 = 0.902 | 776
323.15 K, 13790 kPa, Fluid (supercritical or subcritical phases), x2 = 0.772 | 827
323.15 K, 14080 kPa, Fluid (supercritical or subcritical phases), x2 = 0.186 | 789
323.15 K, 14080 kPa, Fluid (supercritical or subcritical phases), x2 = 0.952 | 744
323.15 K, 14100 kPa, Fluid (supercritical or subcritical phases), x2 = 0.902 | 781
323.15 K, 14290 kPa, Fluid (supercritical or subcritical phases), x2 = 0.933 | 767
323.15 K, 14430 kPa, Fluid (supercritical or subcritical phases), x2 = 0.902 | 785
323.15 K, 14460 kPa, Fluid (supercritical or subcritical phases), x2 = 0.811 | 826
323.15 K, 14550 kPa, Fluid (supercritical or subcritical phases), x2 = 0.772 | 831
323.15 K, 14550 kPa, Fluid (supercritical or subcritical phases), x2 = 0.882 | 800
323.15 K, 14590 kPa, Fluid (supercritical or subcritical phases), x2 = 0.952 | 751
323.15 K, 14730 kPa, Fluid (supercritical or subcritical phases), x2 = 0.948 | 762
323.15 K, 14780 kPa, Fluid (supercritical or subcritical phases), x2 = 0.902 | 789
323.15 K, 14810 kPa, Fluid (supercritical or subcritical phases), x2 = 0.383 | 817
323.15 K, 14920 kPa, Fluid (supercritical or subcritical phases), x2 = 0.933 | 777
323.15 K, 14950 kPa, Fluid (supercritical or subcritical phases), x2 = 0.186 | 791
323.15 K, 15040 kPa, Fluid (supercritical or subcritical phases), x2 = 0.576 | 834
323.15 K, 15140 kPa, Fluid (supercritical or subcritical phases), x2 = 0.902 | 792
323.15 K, Liquid, Other PVT measurement, x2 = 0.186 | 760
323.15 K, Liquid, Other PVT measurement, x2 = 0.383 | 787
323.15 K, Liquid, Other PVT measurement, x2 = 0.576 | 795
323.15 K, Liquid, Other PVT measurement, x2 = 0.772 | 779
323.15 K, Liquid, Other PVT measurement, x2 = 0.811 | 758
323.15 K, Liquid, Other PVT measurement, x2 = 0.882 | 701
323.15 K, Liquid, Other PVT measurement, x2 = 0.902 | 672
323.15 K, Liquid, Other PVT measurement, x2 = 0.933 | 584
326.65 K, 9160 kPa, Fluid (supercritical or subcritical phases), x2 = 0.933 | 528
326.65 K, 9180 kPa, Fluid (supercritical or subcritical phases), x2 = 0.933 | 531
